Values joined by “and” are separate entries in the source; they are usually repeats but may differ in a detail not shown here. Identical values can stand only once. “Also recorded” adds a separate entry of the source.
Legend:
[1] = tested on: moderate or severe atopic dermatitis; test: Phase 2a study, efficacy (EASI/mEASI, PP-NRS); assay type: in vivo, human
Text: (§1) PK blood draws assessed systemic exposure.
Fifty (50) subjects, aged 18-65 years, male and female were selected to use either a topical formulation comprising 2% w/w Compound I or a placebo. Pertinent inclusion criteria for the study included: (i) a diagnosis of atopic dermatitis (AD) fulfilled the specified diagnostic criteria of Hanifin and Rajka (Hanifin J M, Rajka G. Diagnostic features of atopic dermatitis. Acta Derm Venereol. Suppl 1980; 92: 44-7, which is hereby incorporated by reference in its entirety); (ii) a 6-month history of AD; (iii) no significant AD flares for 4 weeks prior; (iv) at least 1 lesion measuring […], but not located on the hands, feet, or genitalia; (v) a stable diagnosis of moderate or severe (Investigator's Global Assessment (IGA) score of 3 or 4); (vi) Eczema Area and Severity Index (EASI) score of ≤48; and (vii) have AD affecting 3% to 20% of Body Surface Area (BSA) (not including head, […], soles of feet, groin, and genitalia).
The 50 subjects were randomized into 2% Compound I treatment (n=23) and vehicle treatment (n=25) groups. Two of the subjects were randomized but not treated. Of the allocated subjects, 91% (n=21) of the Compound I treatment group and 72% (n=18) completed the study. The demographics and baseline characteristics of the study subjects is provided below in Table 3.
(§2) The topical formulation was applied topically twice per day, approximately 8 to 12 hours apart. Up to 8 mL, 1 mL at a time, is applied to an identified AD target area of the subject and rubbed into said area by the subject to achieve a thin film on the skin. Less than 8 mL may be used if less is required to fully cover the identified AD target area. Subjects document symptoms of AD, such as itching, on a daily basis. Subjects were asked to abstain from washing the treated area within 6 hours after application, minimize sun exposure, refrain from using moisturizers, emollients, and sunscreen on the treatment areas, and refrain from activities that would cause profuse sweating (e.g., exercise) for a period of 6 hours after each application. The study ran 4 weeks. On days 1, 8, and 15, a pharmacokinetic sample (e.g., blood) was collected from each subject about 2 hours after application of the topical formulation. On day 28, the following pharmacokinetic samples were collected: • Subgroup 1: One sample before application and one sample at 0.5 to 2.5 hours post application • Subgroup 2: One sample at 2.5 to 5 hours post application and one sample at least 2 hours later • Subgroup 3: One sample at 5 to 8 hours post application and one sample at least 2 hours later (prior to the subsequent application)
On each of these days 1, 8, 15, and 28, symptoms of AD in each subject were evaluated by EASI score, IGA, PP-NRS, and BSA. Primary efficacy of treatment was measured by a percent change from baseline EASI (EASI at day 1) to EASI at day 28.
Further measurements of efficacy included percent change in EASI between each of days 1, 8, 15, and 28 as well as change from baseline and/or prior evaluation of IGA, AD BSA, and PP-NRS on days 8, 15, and 28; percent of subjects achieving IGA scores of 0 to 1 combined with an improvement of 2 or more points from baseline by day 28; proportion of subjects who achieve 50%, 75%, and 90% improvement in EASI score (compared to baseline).
The primary efficacy endpoint of this trial was the percent change from baseline in the Eczema Area and Severity Index (EASI) score at week 4.

[2] = Phase 2a study, plasma pharmacokinetics; assay type: in vivo, human
Experimental: as §1, §2

[3] = in vivo
[4] = Phase 2a study, plasma pharmacokinetics; assay type: in vivo, human; remark: listed apart in the source
[5] = Phase 2a study, safety (adverse events); details: for Candida infection: patients with at least one event: BID, N = 23

**Q.** What does the source list for CCOC(=O)c1cnc2[nH]ccc2c1N[C@@H]1CCCN(C(=O)CC#N)C1 [Compound I, ethyl (R)-4-((1-(2-cyanoacetyl)piperidin-3-yl)amino)-1H-pyrrolo[2,3-b]pyridine-5-carboxylate]?
**A.** Mean decrease in PP-NRS score relative to baseline ([1]; after one week, 2% BID): 1.72; Patients achieving 50% improvement in EASI score (EASI 50) ([1]; end of week 1 (day 8), 2% BID): 34.8%; Patients achieving 75% improvement in EASI score (EASI 75) ([1]; end of week 1 (day 8), 2% BID): 13.0%; Patients achieving 90% improvement in EASI score (EASI 90) ([1]; end of week 1 (day 8), 2% BID): 4.3%; Patients achieving 50% improvement in EASI score (EASI 50) ([1]; end of week 2 (day 15), 2% BID): 69.6%; Patients achieving 75% improvement in EASI score (EASI 75) ([1]; end of week 2 (day 15), 2% BID): 21.7%; Patients achieving 90% improvement in EASI score (EASI 90) ([1]; end of week 2 (day 15), 2% BID): 8.7%; Patients achieving 50% improvement in EASI score (EASI 50) ([1]; end of week 4 (day 28), 2% BID): 91.3%; Patients achieving 75% improvement in EASI score (EASI 75) ([1]; end of week 4 (day 28), 2% BID): 65.2%; Patients achieving 90% improvement in EASI score (EASI 90) ([1]; end of week 4 (day 28), 2% BID): 30.4%; Reduction in mean mEASI score from baseline ([1]; week 4 (day 28), 2.0% topical solution BID, FAS N=23, primary endpoint): 74.4% and 74.5%; Mean drug levels in plasma relative to IC50 ([2]; 2% BID topical, 4 weeks): ≤ 5 % of the IC50; Plasma samples with Compound I levels below the lower limit of quantitation of 0.1 ng/mL ([2]; 4-week topical treatment, 2% BID): Greater than 86%; Plasma samples with concentration of the active compound below 1 ng/ml ([2]; 4-week topical treatment, treatment arm): greater than 86%; Average plasma concentration ([2]; Day 1, 2 hr post dose): 1.604 ng/mL; Average plasma concentration ([2]; Day 8, 2 hr post dose): 0.519 ng/mL; Average plasma concentration ([2]; Day 28, pre dose): 0.328 ng/mL; All plasma concentrations relative to IC50 ([2]; IC50=36 ng/mL, 2% BID topical): less than half of the IC50; Plasma Compound I CONC ([2]; subject 004-0002, Day 1, hour 0 Predose, LLOQ 0.100): <LLOQ; Plasma Compound I CONC ([2]; subject 004-0002, Day 1, hour 2, LLOQ 0.100): <LLOQ; Plasma Compound I CONC ([2]; subject 004-0002, Day 8, hour 2): 0.229 ng/mL; Plasma Compound I CONC ([2]; subject 004-0002, Day 15, hour 2, LLOQ 0.100): <LLOQ; Plasma Compound I CONC ([2]; subject 004-0002, Day 28/ET, 0.5-2.5 hr): 0.168 ng/mL; Plasma Compound I CONC ([2]; subject 004-0002, Day 28/ET, hour 0 Predose): 0.165 ng/mL; Plasma Compound I CONC ([2]; subject 004-0004, Day 1, hour 0 Predose, LLOQ 0.100): <LLOQ; Plasma Compound I CONC ([2]; subject 004-0004, Day 1, hour 2, LLOQ 0.100): <LLOQ; Plasma Compound I CONC ([2]; subject 004-0004, Day 8, hour 0 Predose, LLOQ 0.100): <LLOQ; Plasma Compound I CONC ([2]; subject 004-0004, Day 8, hour 2, LLOQ 0.100): <LLOQ; Plasma Compound I CONC ([2]; subject 004-0004, Day 15, hour 2, LLOQ 0.100): <LLOQ; Plasma Compound I CONC ([2]; subject 004-0004, Day 28/ET, 5-8 hr, LLOQ 0.100): <LLOQ; Plasma Compound I CONC ([2]; subject 004-0004, Day 28/ET, 7-10 hr): 0.104 ng/mL; Plasma Compound I CONC ([2]; subject 004-0008, Day 1, hour 2): 1.62 ng/mL; Plasma Compound I CONC ([2]; subject 004-0008, Day 8, hour 0 Predose): 0.616 ng/mL; Plasma Compound I CONC ([2]; subject 004-0008, Day 8, hour 2): 0.639 ng/mL; Plasma Compound I CONC ([2]; subject 004-0008, Day 15, hour 0 Predose): 0.740 ng/mL; Plasma Compound I CONC ([2]; subject 004-0008, Day 15, hour 2): 0.512 ng/mL; Plasma Compound I CONC ([2]; subject 004-0008, Day 28/ET, 2.5-5 hr): 0.543 ng/mL; Plasma Compound I CONC ([2]; subject 004-0008, Day 28/ET, 4.5-7 hr): 0.441 ng/mL; Plasma Compound I CONC ([2]; subject 012-0001, Day 1, hour 0 Predose, LLOQ 0.100): <LLOQ; Plasma Compound I CONC ([2]; subject 012-0001, Day 1, hour 2): 14.9 ng/mL; Plasma Compound I CONC ([2]; subject 012-0001, Day 8, hour 2): 1.50 ng/mL; Plasma Compound I CONC ([2]; subject 012-0001, Day 15, hour 0 Predose): 0.521 ng/mL; Plasma Compound I CONC ([2]; subject 012-0001, Day 15, hour 2): 1.05 ng/mL; Plasma Compound I CONC ([2]; subject 012-0001, Day 28/ET, 0.5-2.5 hr): 3.71 ng/mL; Plasma Compound I CONC ([2]; subject 012-0001, Day 28/ET, hour 0 Predose): 1.23 ng/mL; Plasma Compound I CONC ([2]; subject 012-0017, Day 1, hour 0 Predose, LLOQ 0.100): <LLOQ; Plasma Compound I CONC ([2]; subject 012-0017, Day 1, hour 2): 2.45 ng/mL; Plasma Compound I CONC ([2]; subject 012-0017, Day 8, hour 0 Predose): 0.845 ng/mL; Plasma Compound I CONC ([2]; subject 012-0017, Day 8, hour 2): 0.459 ng/mL; Plasma Compound I CONC ([2]; subject 012-0017, Day 15, hour 0 Predose): 11.1 ng/mL; Plasma Compound I CONC ([2]; subject 012-0017, Day 15, hour 2): 5.26 ng/mL; Plasma Compound I CONC ([2]; subject 012-0017, Day 28/ET, 5-8 hr): 0.536 ng/mL; Plasma Compound I CONC ([2]; subject 012-0017, Day 28/ET, 7-10 hr): 0.704 ng/mL; Plasma Compound I CONC ([2]; subject 13-0001, Day 1, hour 0 Predose, LLOQ 0.100): <LLOQ; Plasma Compound I CONC ([2]; subject 13-0001, Day 1, hour 2): 12.9 ng/mL; Plasma Compound I CONC ([2]; subject 13-0001, Day 8, hour 0 Predose): 0.914 ng/mL; Plasma Compound I CONC ([2]; subject 13-0001, Day 8, hour 2): 1.79 ng/mL; Plasma Compound I CONC ([2]; subject 13-0001, Day 15, hour 2): 1.86 ng/mL; Plasma Compound I CONC ([2]; subject 13-0001, Day 28/ET, 0.5-2.5 hr): 3.99 ng/mL; Plasma Compound I CONC ([2]; subject 13-0001, Day 28/ET, hour 0 Predose): 0.530 ng/mL; Highest plasma concentration in any subject ([2]; whole study): ≤ 15 ng/mL; Samples with plasma concentrations > 1/10th the IC50 ([2]; whole study): 6 total samples; Subjects with plasma concentrations > 1/10th the IC50 ([2]; whole study): 3 subjects; Application site irritation: patients with at least one event ([3]; human): 0; Oropharyngeal pain: patients with at least one event ([3]; human): 0; Pharyngitis streptococcal: patients with at least one event ([3]; human): 0; Rash: patients with at least one event ([3]; human): 0; SARS-CoV-2 test positive: patients with at least one event ([3]; human): 0; Sinus congestion: patients with at least one event ([3]; human): 0; Skin fragility: patients with at least one event ([3]; human): 0; Somnolence: patients with at least one event ([3]; human): 0; COVID-19: patients with at least one event ([3]; human, 4 weeks): 0; Related TEAE, last figure of the cell (number of events) ([3]; human, 4 weeks): 1; Severe TEAE, last figure of the cell (number of events) ([3]; human, 4 weeks): 2; Subjects reporting AEs ([3]; human, 4 weeks): 9/23; Subjects with at least one SAE ([3]; human, 4 weeks): 0; Subjects with at least one TEAE leading to discontinuation of study drug ([3]; human, 4 weeks): 0; Subjects with at least one TEAE, number (percent) ([3]; human, 4 weeks): 9 (39.1); Subjects with at least one related TEAE, number (percent) ([3]; human, 4 weeks): 1 (4.3); Subjects with at least one severe TEAE, number (percent) ([3]; human, 4 weeks): 2 (8.7); TEAE, last figure of the cell (number of events, agrees with Table 7) ([3]; human, 4 weeks): 16; Severe adverse events [3]: Two unrelated severe events (AF and elevated CPK); Thrombosis [3]: no reports of thrombosis; Tolerability [3]: generally well tolerated; Plasma Compound I CONC ([4]; subject 004-0002, Day 8, hour 0 Predose): 0.188 ng/mL; Plasma Compound I CONC ([4]; subject 004-0002, Day 15, hour 0 Predose): 0.100 ng/mL; Plasma Compound I CONC ([4]; subject 004-0004, Day 15, hour 0 Predose, LLOQ 0.100): <LLOQ; Plasma Compound I CONC ([4]; subject 004-0008, Day 1, hour 0 Predose, LLOQ 0.100): <LLOQ; Plasma Compound I CONC ([4]; subject 012-0001, Day 8, hour 0 Predose): 1.43 ng/mL; Plasma Compound I CONC ([4]; subject 13-0001, Day 15, hour 0 Predose): 0.598 ng/mL; Deaths / serious adverse events ([5]; 4 weeks BID): No deaths or SAEs were reported; also recorded: No serious adverse events were reported; Candida infection: patients with at least one event ([5]; Mild): 0; Candida infection: patients with at least one event ([5]; Moderate): 1 (4.3); Candida infection: patients with at least one event ([5]; Severe): 0

— US20240139170A1, “TOPICAL FORMULATIONS OF A JAK 1/3 INHIBITOR AND METHODS OF USE THEREOF FOR TREATMENT OF ATOPIC DERMATITIS AND OTHER SKIN CONDITIONS” (ACLARIS THERAPEUTICS, INC., priority 2021, published 2024)
